Reference: EP4745117A1, “NOVEL INDENONE DERIVATIVE AND USE THEREOF” (Amyloid Solution Inc., priority 2023, dated 2025)
Read-outs that look alike come from different tables or passages of the source.

Assays:
[1] = target: Tau-RD3 (Tau repeat domain 3) (Homo sapiens, UniProt P10636); assay: Tau disaggregation test by Thioflavin-T analysis; assay type: biochemical
Method: (§1) Each compound was dissolved in DMSO to a concentration of 10 mM. Then, the compounds were diluted with 6 % DMSO (in DW) for use.
(§2) Amyloid-beta and tau solutions were prepared by dissolving Aβ1-42 or Tau-RD3 (Tau repeat domain 3) monomers in DMSO to a concentration of 10 mM. Then, the solutions were diluted to 100 µM with DW and stored on ice.
(§3) Meanwhile, Thioflavin-T was dissolved in 50 mM glycine buffer (pH 8.5) to a concentration of 5 mM. Then, the solution was diluted to 5 µM with 50 mM glycine buffer (pH 8.5) and stored in the dark, protected from light.
(§4) The amyloid-beta and tau solutions prepared in Example 1.1 were each placed in 1.5 mL microcentrifuge tubes to a concentration of 50 µM or 35 µM, respectively, and then reacted at 37 °C for 24 hours.
(§5) To each 1.5 mL microcentrifuge tube in which the amyloid-beta and tau aggregation was complete, the compounds were added at concentrations ranging from 500 µM down to 0 µM by serial dilution, and then further reacted at 37 °C for 48 hours.
(§6) 25 µL of each completed reaction solution was added to each well of a 96-well fluorescence analysis plate, and 75 µL of the Thioflavin-T solution was added to each well. After reacting for 5 minutes at room temperature in the dark, the fluorescence value was measured at 450 nm (excitation) and 485 nm (emission) using a multi-mode microplate reader.
(§7) The fluorescence value of the group (control group) treated with only amyloid-beta or tau and aggregated for 72 hours was designated as 100 %. The fluorescence values measured after treating the amyloid-beta and tau aggregates (formed by reacting for 24 hours) with each compound by concentration and reacting for an additional 48 hours were converted to relative values.

Aβ1-42 = target: T1, Aβ1-42 (Homo sapiens, UniProt P05067); assay: Amyloid-beta disaggregation test by Thioflavin-T analysis; assay type: biochemical
T1 construct: dissolving Aβ1-42 or Tau-RD3 (Tau repeat domain 3) monomers in DMSO
T1 sequence (P05067 672-713 limits assumed): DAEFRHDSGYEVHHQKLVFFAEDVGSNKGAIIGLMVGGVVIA
Method: as §1, §2, §3, §4, §5, §6, §7

[2] = Tau-RD3 35 µM aggregated 24 hours, then compound 0 - 500 µM for 48 hours at 37 °C; concentration disaggregating 50 % of aggregates vs control; read-out: EC50 (µM) Tau
[3] = Aβ1-42 50 µM aggregated 24 hours, then compound 0 - 500 µM for 48 hours at 37 °C; concentration disaggregating 50 % of aggregates vs control; read-out: EC50 (µM) Aβ
[4] = statement in words summarising the Thioflavin-T results

Sequence of Tau-RD3 (Tau repeat domain 3) (P10636 623-653 limits assumed): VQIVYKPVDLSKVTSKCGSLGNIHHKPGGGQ

Compound | EC50 [1, 2] | EC50 (Aβ1-42; [3]) | disaggregation effect for tau protein aggregates [1, 4] | disaggregation effect for amyloid-beta protein aggregates (Aβ1-42; [4]) | EC50 ([1]; read-out: EC50 (µM) Tau; Tau-RD3 35 µM aggregated 24 hours, then compound 0 - 500 µM for 48 hours at 37 °C; concentration disaggregating 50 % of aggregates vs control) | EC50 (Aβ1-42; read-out: EC50 (µM) Aβ; Aβ1-42 50 µM aggregated 24 hours, then compound 0 - 500 µM for 48 hours at 37 °C; concentration disaggregating 50 % of aggregates vs control)
O=C1C(c2ccccc2)=C(c2ccccc2)c2ncccc21 [Compound 98, 6,7-diphenyl-5H-cyclopenta[b]pyridin-5-one] | > 250 µM | > 250 µM | – | – | – | –
Cc1ncsc1C1=C(c2cccnc2)C(=O)c2cc(Oc3ccccc3)ccc21 [Compound 66, 3-(4-methylthiazol-5-yl)-6-phenoxy-2-(pyridin-3-yl)-1H-inden-1-one] | < 20 µM | < 20 µM | remarkably excellent disaggregation effect | remarkably excellent disaggregation effect | – | –
CC(C)(C)c1cc(C2=C(c3ccccc3)C(=O)c3ccccc32)cc(C(C)(C)C)c1 [Compound 96, 3-(3,5-di-tert-butylphenyl)-2-phenyl-1H-inden-1-one] | > 250 µM | > 250 µM | – | – | – | –
Cc1ncsc1C1=C(c2cccnc2)C(=O)c2cc(NC3CCCN(c4ccccc4)C3)ccc21 (centres unmarked) [Compound 58, 3-(4-methylthiazol-5-yl)-6-((1-phenylpiperidin-3-yl)amino)-2-(pyridin-3-yl)-1H-inden-1-one] | > 250 µM | < 20 µM | – | – | – | –
Cc1ccccc1C1=C(c2c(C)cccc2C)c2ccc(O)cc2C1=O [Compound 84, 3-(2,6-dimethylphenyl)-6-hydroxy-2-(o-tolyl)-1H-inden-1-one] | < 20 µM | < 20 µM | remarkably excellent disaggregation effect | remarkably excellent disaggregation effect | – | –
COc1cc(OC)c2c(c1)C(=O)C(c1ccccc1)=C2c1ccccc1 [Compound 97, 4,6-dimethoxy-2,3-diphenyl-1H-inden-1-one] | > 250 µM | < 20 µM | – | – | – | –
Cc1ncsc1C1=C(c2ccccn2)C(=O)c2cc(OCCCc3ccccc3)ccc21 [Compound 40, 3-(4-methylthiazol-5-yl)-6-(3-phenylpropoxy)-2-(pyridin-2-yl)-1H-inden-1-one] | > 250 µM | < 20 µM | – | – | – | –
Cc1ncsc1C1=C(c2cccnc2)C(=O)c2cc(NC3CCOCC3)ccc21 [Compound 56, 3-(4-methylthiazol-5-yl)-2-(pyridin-3-yl)-6-((tetrahydro-2H-pyran-4-yl)amino)-1H-inden-1-one] | 20 to 100 µM | 20 to 100 µM | – | – | – | –
CC(C)Oc1ccc2c(c1)C(=O)C(c1ccccc1)=C2c1ccccc1 [Compound 4, isopropoxy-2,3-diphenyl-1H-inden-1-one] | – | – | – | – | > 250 µM | 20 to 100 µM
CNc1ccc2c(c1)C(=O)C(c1ccccc1)=C2c1ccccc1 [Compound 67, 6-(methylamino)-2,3-diphenyl-1H-inden-1-one] | > 250 µM | > 250 µM | – | – | – | –
O=C1C(c2ccccc2)=C(c2ccc(CN3CCOCC3)cc2)c2ccccc21 [Compound 16, 3-(4-(morpholinomethyl)phenyl)-2-phenyl-1H-inden-1-one] | > 250 µM | 20 to 100 µM | – | – | – | –
O=C1C(c2ccc(N3CCOCC3)cc2)=C(c2ccccc2)c2ccccc21 [Compound 17, 2-(4-morpholinophenyl)-3-phenyl-1H-inden-1-one] | > 250 µM | < 20 µM | – | – | – | –
Cc1ncsc1C1=C(c2cccnc2)C(=O)c2ccccc21 [Compound 19, 3-(4-methylthiazol-5-yl)-2-(pyridin-3-yl)-1H-inden-1-one] | 100 to 250 µM | > 250 µM | – | – | – | –
Cn1cc(C2=C(c3cccnc3)C(=O)c3cc(O)ccc32)cn1 [Compound 42-7, 6-hydroxy-3-(1-methyl-1H-pyrazol-4-yl)-2-(pyridin-3-yl)-1H-inden-1-one] | 100 to 250 µM | > 250 µM | – | – | – | –
CN1CCN(c2ccc(C3=C(c4ccccc4)C(=O)c4ccccc43)cc2)CC1 [Compound 94, 3-(4-(4-methylpiperazin-1-yl)phenyl)-2-phenyl-1H-inden-1-one] | 20 to 100 µM | < 20 µM | – | – | – | –
O=C1C(c2ccccc2)=C(C2CCCCC2)c2ccccc21 [Compound 10, 3-cyclohexyl-2-phenyl-1H-inden-1-one] | > 250 µM | > 250 µM | – | – | – | –
Cc1ncsc1C1=C(c2cccnc2)C(=O)c2cc(N3CCN(C)CC3)ccc21 [Compound 64, 6-(4-methylpiperazin-1-yl)-3-(4-methylthiazol-5-yl)-2-(pyridin-3-yl)-1H-inden-1-one] | 100 to 250 µM | 20 to 100 µM | – | – | – | –
CNC(=O)c1ccccc1C1=C(c2ccccc2C)c2ccccc2C1=O [Compound 99, N-methyl-2-(1-oxo-3-(o-tolyl)-1H-inden-2-yl)benzamide] | > 250 µM | > 250 µM | – | – | – | –
Cc1ncsc1C1=C(c2c[nH]nn2)C(=O)c2cc(OCCCc3ccccc3)ccc21 [Compound 31, 3-(4-methylthiazol-5-yl)-6-(3-phenylpropoxy)-2-(1H-1,2,3-triazol-4-yl)-1H-inden-1-one] | < 20 µM | < 20 µM | – | – | – | –
Cc1ncsc1C1=C(c2cccnc2)C(=O)c2cc(NC(=O)C3CCOCC3)ccc21 [Compound 61, N-(3-(4-methylthiazol-5-yl)-1-oxo-2-(pyridin-3-yl)-1H-inden-6-yl)tetrahydro-2H-pyran-4-carboxamide] | > 250 µM | > 250 µM | – | – | – | –
Cc1ncsc1C1=C(c2cccc(CN3CCN(C)CC3)c2)c2ccccc2C1=O [Compound 93, 3-(3-((4-methylpiperazin-1-yl)methyl)phenyl)-2-(4-methylthiazol-5-yl)-1H-inden-1-one] | 20 to 100 µM | 20 to 100 µM | – | – | – | –
Cc1ncsc1C1=C(c2cc[nH]n2)C(=O)c2cc(OCCCc3ccccc3)ccc21 [Compound 25, 3-(4-methylthiazol-5-yl)-6-(3-phenylpropoxy)-2-(1H-pyrazol-3-yl)-1H-inden-1-one] | > 250 µM | < 20 µM | – | – | – | –
COc1ccc2c(c1)C(=O)C(c1ccccc1)=C2c1ccccc1 [Compound 2, 6-methoxy-2,3-diphenyl-1H-inden-1-one] | > 250 µM | < 20 µM | – | – | – | –
Cc1ncsc1C1=C(c2ccc(N3CCN(C)CC3)cc2)C(=O)c2cc(OCCCc3ccccc3)ccc21 [Compound 76, 2-(4-(4-methylpiperazin-1-yl)phenyl)-3-(4-methylthiazol-5-yl)-6-(3-phenylpropoxy)-1H-inden-1-one] | < 20 µM | < 20 µM | – | – | – | –
Cc1ccccc1C1=C(c2ccccc2)C(=O)c2ccccc21 [Compound 5, 2-phenyl-3-(o-tolyl)-1H-inden-1-one] | > 250 µM | 20 to 100 µM | – | – | – | –
CN1CCN(c2ccc3c(c2)C(=O)C(c2cccc(N4CCOCC4)c2)=C3c2cccc(N3CCOCC3)c2)CC1 [Compound 80, 6-(4-methylpiperazin-1-yl)-2,3-bis(3-morpholinophenyl)-1H-inden-1-one] | 100 to 250 µM | 20 to 100 µM | – | – | – | –
CN(C)c1ccc2c(c1)C(=O)C(c1ccccc1)=C2c1ccccc1 [Compound 69, 6-(dimethylamino)-2,3-diphenyl-1H-inden-1-one] | > 250 µM | < 20 µM | – | – | – | –
Cc1ncsc1C1=C(c2cnccn2)C(=O)c2cc(OCCCc3ccccc3)ccc21 [Compound 41, 3-(4-methylthiazol-5-yl)-6-(3-phenylpropoxy)-2-(pyrazin-2-yl)-1H-inden-1-one] | > 250 µM | < 20 µM | – | – | – | –
COCCNc1ccc2c(c1)C(=O)C(c1cccnc1)=C2c1scnc1C [Compound 54, 6-((2-methoxyethyl)amino)-3-(4-methylthiazol-5-yl)-2-(pyridin-3-yl)-1H-inden-1-one] | > 250 µM | > 250 µM | – | – | – | –
